Data as given in US20060252707A1, “Pharmaceutical composition for the treatment and/or the prevention of atherosclerosis from infectious origin” (UNIVERSITE DE LIEGE, priority 2003, published 2006).

Columns and labels:
Type in all cases: cell-based, human
[1] = tested on: THP-1 cells conditioned with Chlamydia pneumoniae; test: Oxidant activity (ethylene production from KMB, gas liquid chromatography) of THP-1 cells conditioned with Chlamydia pneumoniae, then stimulated by PMA; conditions: for Ethylene: % of THP-1 + Chlamydia
Experimental: This model has been described in details in Mouithys Mickalad et al. (Biochem Biophys Res Comm 2001, 287: 781-788). Treatment of the Cells with Chlamydia pneumoniae:
The monocytes (in multiwell plates, 2×10^6 cells/well) are conditioned by a pre-incubation of 19 hours with elementary bodies of Chlamydia pneumoniae (at a dose equivalent to a mean endotoxin concentration of 3.3 pg). The elementary bodies are obtained by Chlamydia culture in MacCoy cells (American Type Culture Collection, Rockville, USA).
(§1) After incubation with C. pneumoniae, the cells are washed and detached from the wells; they are put in sterile vials and an oxidable substrate, α-keto-methyl butyric acid (KMB) at 10^−3 M, is added. The vial is sealed and the following reagents are added by needle puncture. through the septum: 200 U horseradish peroxidase (HRP) and 10^−7 M phorbol myristate acetate (PMA).
(§2) PMA is a monocyte activator, enhancing the superoxide anion production by these cells. Superoxide anion dismutates into hydrogen peroxide (H2O2), which is used by HRP to form more oxidant species, able to oxidize KMB, releasing ethylene. After 3 hours of incubation at 37° C, ethylene, which has accumulated in the gaseous phase of the sealed vial is measured by gas liquid chromatography, on a Porapak T column (TM) equipped with flame ionisation detector. These assays can be made with the prior addition of a reagent able to inhibit or to stimulate the monocytes, the reagent being added, either at pre-incubation (at the same time as the Chlamydia EB), or at the moment of PMA activation.

[2] = tested on: THP-1 cells conditioned with Escherichia Coli endotoxin (LPS); test: Oxidant activity (ethylene production) of THP-1 cells conditioned with Escherichia Coli endotoxin (LPS), then stimulated by PMA; conditions: for Ethylene: FIG. 9 part 2, % of THP-1 + LPS, PMA 10^−7 M
Experimental: FIG. 9 represents the effects of hydrocortisone (HCT) on the oxidant activity of THP-1 cells conditioned either with Chlamydia pneumoniae (part 1; n=13) or with Escherichia Coli endotoxin (LPS) (part 2), and then stimuled by PMA 10^−7 M. Ethylene is expressed in % of the value measured for THP-1 cells incubated with Chlamydia (column 2 for part 1), or incubated with LPS (column 1 for par 2).
as §1, §2
Two glucocorticoids were tested: hydrocortisone and methylprednisolone. […] On the contrary, HCT is an inhibitor on the oxidation rate when the cells are conditioned with endotoxins (LPS) of Escherichia coli (FIG. 9 part 2, columns 2, 3 and 4) (Ethylene values are expressed in % of the control cells=THP-1 cells stimulated by PMA 10^−7 M after pre-incubation with Chlamydia (part 1, column 2) or LPS ([…]

[3] = tested on: nuclear transcription factor kappaB (NF-κB); test: Activation of NF-κB (binding to DNA) by electrophoretic mobility shift assay in THP-1 cells pre-incubated with Chlamydia; conditions: for NF-κB relative value (%): THP-1 + Chlamydia, % of THP-1 without preincubation with C pneumoniae (FIG. 7)
Experimental: FIG. 7 represents the effects of pre-incubation with Chlamydia on the activity of the nuclear transcription factor kappaB (NF-kB) (column 2). NF-kB is expressed in % of column 1 (THP-1 cells without preincubation with C pneumoniae)
The activation of NF-κB was measured by the technique of <<electrophoretic mobility shift assay>> (EMSA) (Schoonbroodt et al., 2000, J Immunol. 164: 4292-4300; Nys et al., 2003, Nitric Oxide 9: 33-43) (FIG. 7). The activation of NF-κB is expressed in % of control cells (cells which have not been pre-incubated with Chlamydia) (column 1). The incubation of monocytes with C. pneumoniae activates the NF-κB binding to DNA (FIG. 7, column 2).

[4] = tested on: TNFα; test: TNFα production (ELISA, culture supernatant) by THP-1 cells pre-incubated with Chlamydia pneumoniae; conditions: 10^−9 M to 10^−5 M; THP-1 pre-incubated (19h) with Chlamydia
Experimental: (§3) By using this model, one may verify that the monocyte incubation with C. pneumoniae during 19 hours, enhances the production of TNFα(FIG. 6, part 1) and IL-8 ([…]), as measured by immunological methods (ELISA type) in the culture supernatant.

[5] = tested on: IL-8; test: IL-8 production (ELISA, culture supernatant) by THP-1 cells pre-incubated with Chlamydia pneumoniae; conditions: 10^−9 M to 10^−5 M; THP-1 pre-incubated (19h) with Chlamydia
Experimental: as §3

[6] = tested on: p22^phox; test: Gene expression (PCR) of NADPH-oxidase subunit p22phox in THP-1 cells incubated with Chlamydia; conditions: FIG. 16; 10^−4 to 10^−6 M
Experimental: FIG. 16 represents the genetic expression of one of the subunits of NADPH-oxidase, the p22^phox, and the effects of glucocorticoids, hydrocortisone (HCT) and methylprednisolone (MPL) (data are expressed as relative values by comparison with a reference gene).
By the PCR (<<polymerase chain reaction>>) method, it was observed that the incubation of monocytes with C. pneumoniae increased the expression of the genes (FIG. 8, column 2 compared to column 1) coding for interleukines 1β (IL-1β) (FIG. 8, part 1), 6 (IL-6) (FIG. 8, part 2) and 8 (IL-8) (FIG. 8, part 3), coding for inducible cyclo-oxygenase (COX-2) (FIG. 8, part 4) and coding for one of the subunits of NADPH-oxidase, the p22 protein (p22^phox) (FIG. 8, part 5) (results are presented as relative values by comparison with a reference gene).

[7] = tested on: THP-1 cell line; test: Model of foam cell formation from THP-1 monocytes (Chlamydia pneumoniae, then LDL or liposomes, Oil Red O); conditions: LDL
Experimental: A model of foam cell formation from monocytes (THP-1 cell line) was developed. The cells are incubated for 19 hours with Chlamydia pneumoniae. This incubation is followed by the addition of human LDL or liposomes, and another incubation period of 48 hours. At the end of this second period of incubation, the cells are fixed and stained with oil Red O (Sigma, Belgium) (Smirnova et al., 2004, Am J Physiol Heart Circ Physiol. March 11 (Epub ahead of print) to highlight the foam cells. When drugs are used in this model, they are added at the same time as the LDL or liposomes. LDL are prepared from human blood drawn on EDTA. They are isolated by sequential flotation centrifugation with increased concentrations of KBr. After their isolation, LDL are dialysed, sterilised by filtration and their purity is confirmed by electrophoresis. Liposomes are lipid vesicles prepared by extrusion with cholesterol esters and phospholipids, mimicking lipoproteins.

`C[C@]12CCC(=O)C=C1CC[C@@H]1[C@@H]2[C@@H](O)C[C@@]2(C)[C@H]1CC[C@]2(O)C(=O)CO` [HCT, hydrocortisone] was tested, and the Ethylene ([1]; FIG. 9 part 1, 10^−4 M, PMA 10^−7 M) was 108%, the Ethylene ([1]; FIG. 9 part 1, 10^−5 M, PMA 10^−7 M) was 119% and the Ethylene ([1]; FIG. 9 part 1, 10^−6 M, PMA 10^−7 M) was 139%. The Ethylene ([1]; FIG. 19, drug alone 10^−4 M, pre-incubation with Chlamydia) was 84.0%, the Ethylene ([1]; FIG. 19, drug alone 10^−5 M, pre-incubation with Chlamydia) was 116.0% and the Ethylene ([1]; FIG. 20, drug alone 10^−4 M, pre-incubation with Chlamydia) was 98.0%. It also gave an Ethylene ([1]; FIG. 20, drug alone 10^−5 M, pre-incubation with Chlamydia) of 85.0%, an Ethylene ([1]; FIG. 21, drug alone 10^−4 M, pre-incubation with Chlamydia) of 104.0% and an Ethylene ([1]; FIG. 21, drug alone 10^−5 M, pre-incubation with Chlamydia) of 72.0%. For the same compound, the Ethylene ([1]; FIG. 22, drug alone 10^−4 M, pre-incubation with Chlamydia) was 118.0%, the Ethylene ([1]; FIG. 22, drug alone 10^−5 M, pre-incubation with Chlamydia) was 68.1% and the “effect on oxidant activity / oxidation rate” value ([1]; drug added at cell conditioning with Chlamydia (pre-incubation 19 hours), then PMA 10^−7 M) was “either does not modify the oxidant capacity, or even increases the oxidation rate”. It also gave an Ethylene ([2]; 10^−4 M) of 19%, an Ethylene ([2]; 10^−5 M) of 50% and an Ethylene ([2]; 10^−6 M) of 57%. For the same compound, the “effect on oxidation rate” value ([2]; cells conditioned with endotoxins (LPS) of Escherichia coli, 10^−4 to 10^−6 M) was “inhibitor”, the “NF-κB relative value (%)” value ([3]; 10^−5 M) was 396% and the “NF-κB relative value (%)” value ([3]; 10^−6 M) was 480%. The “effect on the activation of NF-κB” value ([3]; at 10^−5 and 10^−6 M) was “without significant effect”, the “activity of NF-κB” value ([3]; at 10^−6 M) was “slightly stimulated” and the “effect on production of TNFα” value [4] was “dose-dependent inhibiting effect”. For the same compound, the “effect on production of IL-8” value [5] was “dose-dependent inhibiting effect”, the “effect on gene expression of p22^phox” value [6] was “inhibitors” and the “effect on transformation into foam cells” value ([7]; 10^−5 M) was “favouring effect”. The “effect on transformation into foam cells” value ([7]; at 10^−5 and 10^−6 M) was “does not inhibit the transformation into foam cells”.
